Assays:
Type in all cases: in vivo
[1] = system: barnyardgrass (Echinochloa crus-galli); assay: Test A preemergence soil spray, visual injury rating 0-100; settings: 10 days
How it was run: (§1)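 Greenhouse test: loam/sand pots received a surfactant-containing formulation, as a preemergence directed soil spray or a postemergence spray on young plants. Injury was judged visually at day 10 relative to untreated controls.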

[2] = system: blackgrass (Alopecurus myosuroides); assay: as above; settings: 10 days
How it was run: as §1

corn (Zea mays) [3] = assay: as above; settings: 10 days
How it was run: as §1

[4] = system: green foxtail (Setaria viridis); assay: as above; settings: 10 days
How it was run: as §1

kochia (Bassia scoparia) [5] = assay: as above; settings: 10 days
How it was run: as §1

[6] = system: oat, wild (wild oat, Avena fatua); assay: as above; settings: 10 days
How it was run: as §1

[7] = system: ragweed (common ragweed, Ambrosia artemisiifolia); assay: as above; settings: 10 days
How it was run: as §1

[8] = system: ryegrass, Italian (italian ryegrass, Lolium multiflorum); assay: as above; settings: 10 days
How it was run: as §1

soybean (Glycine max) [9] = assay: as above; settings: 10 days
How it was run: as §1

[10] = system: wheat (Triticum aestivum); assay: as above; settings: 10 days
How it was run: as §1

[11] = system: barnyardgrass (Echinochloa crus-galli); assay: Test A postemergence application, visual injury rating 0-100
How it was run: as §1

[12] = system: blackgrass (Alopecurus myosuroides); assay: as above
How it was run: as §1

corn (Zea mays) [13] = assay: as above
How it was run: as §1

[14] = system: galium (catchweed bedstraw, Galium aparine); assay: as above
How it was run: as §1

[15] = system: green foxtail (Setaria viridis); assay: as above
How it was run: as §1

[16] = system: horseweed (Erigeron canadensis); assay: as above
How it was run: as §1

kochia (Bassia scoparia) [17] = assay: as above
How it was run: as §1

[18] = system: oat, wild (wild oat, Avena fatua); assay: as above
How it was run: as §1

[19] = system: palmer (palmer amaranth, palmer pigweed, Amaranthus palmeri); assay: as above
How it was run: as §1

[20] = system: ragweed (common ragweed, Ambrosia artemisiifolia); assay: as above
How it was run: as §1

[21] = system: ryegrass, Italian (italian ryegrass, Lolium multiflorum); assay: as above
How it was run: as §1

soybean (Glycine max) [22] = assay: as above
How it was run: as §1

[23] = system: wheat (Triticum aestivum); assay: as above
How it was run: as §1

[24] = system: barnyardgrass (Echinochloa crusgalli); assay: Test B flooded paddy test, visual plant response rating 0-100; settings: 250 g ai/ha, Flood, applied to paddy water, evaluated after 13 days
How it was run: (§2)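 Each species was raised to two leaves before flooding to a 3 cm depth and dosing the water with compound. Injury was assessed by eye after 13 days under greenhouse conditions.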

[25] = system: ducksalad (Heteranthera limosa); assay: as above; settings: 250 g ai/ha, Flood, applied to paddy water, evaluated after 13 days
How it was run: as §2

rice (Oryza sativa) = assay: as above; settings: 250 g ai/ha, Flood, applied to paddy water, evaluated after 13 days
How it was run: as §2

[26] = system: sedge, umbrella (small-flower umbrella sedge, Cyperus difformis); assay: as above; settings: 250 g ai/ha, Flood, applied to paddy water, evaluated after 13 days
How it was run: as §2

[27] = 62 g ai/ha, 0 = no effect, 100 = complete control
[28] = 62 g ai/ha, postemergence, 10 days, 0 = no effect, 100 = complete control
[29] = Postemergence, 16 g ai/ha, greenhouse 10 days, 0 no effect, 100 complete control

CSCCOC(=O)C1=CCC(NC(=O)C2(C)CN(c3cc(F)cc(Cl)c3)C(=O)O2)C1 (centres unmarked) [Compound 135]
60: Soybean plant response rating (0 to 100 scale) (soybean (Glycine max) [22]; [29])
90: Ryegrass, Italian plant response rating (0-100) [8, 27] | Wheat plant response rating (0-100) [10, 27] | Blackgrass plant response rating (0 to 100 scale) [12, 29] | Foxtail, Green plant response rating (0-100) [15, 28] | Foxtail, Green plant response rating (0 to 100 scale) [15, 29] | Horseweed plant response rating (0-100) [16, 28] | Kochia plant response rating (0-100) (kochia (Bassia scoparia) [17]; [28]) | Kochia plant response rating (0 to 100 scale) (kochia (Bassia scoparia) [17]; [29]) | Oat, Wild plant response rating (0-100) [18, 28] | Pigweed, Palmer plant response rating (0-100) [19, 28] | Ryegrass, Italian plant response rating (0-100) [21, 28] | Wheat plant response rating (0-100) [23, 28] | Plant response rating, Barnyardgrass (0 to 100 scale, 0 is no effect and 100 is complete control) [24]
10: Wheat plant response rating ([10]; 16 g ai/ha, 0 to 100 scale)
0: Blackgrass plant response rating ([2]; 16 g ai/ha, 0 to 100 scale) | Corn plant response rating (corn (Zea mays) [3]; 16 g ai/ha, 0 to 100 scale) | Foxtail, Green plant response rating ([4]; 16 g ai/ha, 0 to 100 scale) | Kochia plant response rating (kochia (Bassia scoparia) [5]; 16 g ai/ha, 0 to 100 scale) | Ragweed plant response rating ([7]; 16 g ai/ha, 0 to 100 scale) | Ragweed plant response rating (0-100) [7, 27] | Ryegrass, Italian plant response rating ([8]; 16 g ai/ha, 0 to 100 scale)
50: Barnyardgrass plant response rating (0-100) [1, 27]
100: Barnyardgrass plant response rating (0-100) [11, 28] | Barnyardgrass plant response rating (0 to 100 scale) [11, 29] | Blackgrass plant response rating (0-100) [12, 28] | Corn plant response rating (0-100) (corn (Zea mays) [13]; [28]) | Corn plant response rating (0 to 100 scale) (corn (Zea mays) [13]; [29])
20: Barnyardgrass plant response rating ([1]; 16 g ai/ha, 0 to 100 scale) | Blackgrass plant response rating (0-100) [2, 27] | Kochia plant response rating (0-100) (kochia (Bassia scoparia) [5]; [27]) | Oat, Wild plant response rating ([6]; 16 g ai/ha, 0 to 100 scale) | Soybean plant response rating (soybean (Glycine max) [9]; 16 g ai/ha, 0 to 100 scale) | Soybean plant response rating (0-100) (soybean (Glycine max) [9]; [27])
80: Foxtail, Green plant response rating (0-100) [4, 27] | Galium plant response rating (0-100) [14, 28] | Soybean plant response rating (0-100) (soybean (Glycine max) [22]; [28]) | Wheat plant response rating (0 to 100 scale) [23, 29]
65: Plant response rating, Ducksalad (0 to 100 scale, 0 is no effect and 100 is complete control) [25] | Plant response rating, Rice (0 to 100 scale, 0 is no effect and 100 is complete control) (rice (Oryza sativa))
95: Plant response rating, Sedge, Umbrella (0 to 100 scale, 0 is no effect and 100 is complete control) [26]
30: Oat, Wild plant response rating (0-100) [6, 27] | Oat, Wild plant response rating (0 to 100 scale) [18, 29]
70: Corn plant response rating (0-100) (corn (Zea mays) [3]; [27]) | Galium plant response rating (0 to 100 scale) [14, 29] | Horseweed plant response rating (0 to 100 scale) [16, 29] | Pigweed, Palmer plant response rating (0 to 100 scale) [19, 29] | Ragweed plant response rating (0-100) [20, 28]
40: Ragweed plant response rating (0 to 100 scale) [20, 29] | Ryegrass, Italian plant response rating (0 to 100 scale) [21, 29]

Reference: patent US20260285850A1, “SUBSTITUTED OXAZOLIDINONES AND IMIDAZOLINONES AS HERBICIDES” (FMC CORPORATION, priority 2023, published 2026)
